Experimental data from patent publication EP2965760A1, “Combination of antiretroviral agents for use in the prevention or treatment of chronic inflammatory diseases” (Université de Montpellier, priority 2014, dated 2016).
Entries after “also recorded” stand apart in the source; their conditions may differ.

Key:
SCC12B2 cell line = assay: Organotypic 3D reconstructed skin culture, cell differentiation (marker staining); format: cell-based, human; details: SCC12B2-derived 3D reconstructed skin; for effect on cell differentiation (staining for psoriasine and cytokeratin 10): 100 µM for 21 days, immunofluorescence; for effect on cell differentiation: result in words
keratinocytes [1] = assay: IL-6 secretion by keratinocytes upon RT induction, time course (protocol of figure 5); format: cell-based; details: ARV after demethylating treatment; result in words
Procedure: (§1) • Figures 1A-C represent the expression of cytokeratin 10 on SCC12B2-derived 3D reconstructed skin detected by immunohistochemistry. • Figure 1A represents untreated SCC12B2-derived 3D reconstructed skin. • Figure 1B represents SCC12B2-derived 3D reconstructed skin treated by AZT (100 µM) for 21 days: • Figure 1C: represents SCC12B2-derived 3D reconstructed skin treated by efavirenz (100 µM) for 21 days. Arrow indicates cytokeratin 10 expression. • Figures 2A-D represent the expression of psoriasine on SCC12B2-derived 3D reconstructed skin detected by immunofluorescence. • Figure 2A represents untreated SCC12B2-derived 3D reconstructed skin. • Figure 2B represents SCC12B2-derived 3D reconstructed skin treated by AZT (100 µM) for 21 days: • Figure 2C represents SCC12B2-derived 3D reconstructed skin treated by Lamivudine (100 µM) for 21 days. • Figure 2D represents SCC12B2-derived 3D reconstructed skin treated by AZT (100 µM) and Lamivudine (100 µM) for 21 days. […]

endogenous RT activities = assay: Endogenous reverse transcriptase activity in extracts of ARV-treated 3D reconstructed skin (colorimetric Mn2+ and Mg2+ RT kit); format: cell-based, human; details: Mn2+ and Mg2+ dependent; reconstructed skin from SCC12F2, SCC12B2 and primary keratinocytes; result in words
Description: Endogenous RT activities are increased in the psoriatic lesion when compared to non lesional psoriatic skin or normal skin extracts. […] The origin and the nature of these proteins are unknown but considering that the disease is not transmissible horizontally they should be attributed to endogenous proteins. In fact several cellular proteins including telomerase, LINE ORF2 and RT from human endogenous retroviruses (HERV) harbour a reverse transcriptase activity. LINE ORF2 is a Mg^2+-dependent RT, like RTs of the HERVs belonging to the MMTV-like group. The MLV-like HERV group harbours a Mn^2+-dependent RT. Effects of ARV on these activities was assessed in 3D culture models: Various reconstructed skin were assessed for RT inhibition through RTI treatment. They were generated from SSC12F2 and SCC12B2 cell lines and from normal primary keratinocytes (KN).
Reverse transcriptase assay : Protein extracts were prepared by crushing the cryostat skin sections (100 µm) in liquid nitrogen, incubating in ice-cold lysis buffer (10 mM Tris-HCl pH 7.5, 1 mM MgCl2, 1 mM EDTA, 0.1 mM PMSF, 5 mM β-mercaptoethanol, 0.5 % CHAPS, 10 % glycerol, 1 % NP40) and then subjected to three freeze/thaw cycles (LN2/4°C). […] RT activities were quantified with colorimetric highly sensitive Mn^2+ and Mg^2+ RT kit (Cavidi, Uppsala, Sweden) according to the manufacturer's instructions. […]

keratinocytes [2] = assay: IL-6 production by keratinocytes, ARVs given concomitantly with stimulation of RT activity; format: cell-based; details: ARV concomitant with treatment that stimulated RT activity; result in words
Procedure: as §1

keratinocytes [3] = assay: Cytokine production by keratinocytes after demethylating treatment (protocol of figure 5, Day 7); format: cell-based; details: after demethylation treatment
Procedure: • Figures 1A-C represent the expression of cytokeratin 10 on SCC12B2-derived 3D reconstructed skin detected by immunohistochemistry. • Figure 1A represents untreated SCC12B2-derived 3D reconstructed skin. • Figure 1B represents SCC12B2-derived 3D reconstructed skin treated by AZT (100 µM) for 21 days: • Figure 1C: represents SCC12B2-derived 3D reconstructed skin treated by efavirenz (100 µM) for 21 days. Arrow indicates cytokeratin 10 expression. • Figures 2A-D represent the expression of psoriasine on SCC12B2-derived 3D reconstructed skin detected by immunofluorescence. • Figure 2A represents untreated SCC12B2-derived 3D reconstructed skin. • Figure 2B represents SCC12B2-derived 3D reconstructed skin treated by AZT (100 µM) for 21 days: • Figure 2C represents SCC12B2-derived 3D reconstructed skin treated by Lamivudine (100 µM) for 21 days. • Figure 2D represents SCC12B2-derived 3D reconstructed skin treated by AZT (100 µM) and Lamivudine (100 µM) for 21 days. White staining denoted psoriasine expression. • Figures 3A-D represent the expression of cytokeratin 10 on SCC12B2-derived 3D reconstructed skin detected by immunofluorescence. • Figure 3A. represents untreated SCC12B2-derived 3D reconstructed skin. • Figure 3B represents SCC12B2-derived 3D reconstructed skin treated by AZT (100 µM) for 21 days: • Figure 3C represents SCC12B2-derived 3D reconstructed skin treated by lamividune (100 µM) for 21 days; • Figure 3D represents SCC12B2-derived 3D reconstructed skin treated with a combination of AZT (100 µM) and lamivudine (100 µM). White staining denoted cytokeratin 10 expression. • Figure 4 represents a histogram showing the level of endogenous RT activity in 3D reconstructed skin from various cell lines: PC F2 (A), PC B2 (B) or PC KN (C). PC F2 were obtained from the SCC12F2 cell line; PC B2 from the SCC12B2 cell line and PC KN from primary cultured human keratinocytes. Treatment were either azidothymidine (AZT; 2.) or efavirenz (3.) compared to the control (untreated; 1.). • Figure 5 represents a fow chart of the different treatments that aim at mimicking the initiating events of the psoriatic lesions • Figure 6 represents a histogram showing the level of the indicated cytokine production by keratinocytes at Day 7 of the protocol described in figure 5. Data were normalized versus control condition (fold increase in arbitrary unit). 1: IL-17 A; 2: IFN-γ; 3: TNF-α, 4: IL-1 RA and 5: IP-10. White columns represent the expression level in control cells. Black columns represent the expression level in cells treated with deoxyuridine, Grey columns represent the expression level in cells treated with desoxyuridine and Eviplera®. Hatched columns represent the expression level in cells treated with desoxyuridine and rilpivirine. Columns with dots represent the expression level in cells treated with desoxyuridine and efavirenz. • Figure 7 represents a graph showing time course (D0: Day 0; D2: Day 2; D5: Day 5; D7: Day 7) of the level of IL-6 production (fold increase) by keratinocytes according to the protocol described in figure 5. The expression is normalized to control at the corresponding time point. Diamond shape = untreated cells; Filled square = demethylating treated cells; Open square = treated with AZT; Filled circle = treated with lamivudine; Open circle = treated with Eviplera®. • Figure 8 represents a graph showing effects of ARVs upon simultaneous stimulation of RT activities on the production of IL-6 by keratinocytes. Values are normalized versus control. Filled diamond shape = control; Filled square = treated with demethylating agent; Triangle = treated with demethylating agent + Eviplera®; open diamond shape = treated with demethylating agent + lamivudine; Open circle = treated with demethylating agent + AZT; Filled circle = treated with demethylating agent + AZT + Lamivudine. […]

Structure (SMILES)	effect on cell differentiation (staining for psoriasine and cytokeratin 10) (SCC12B2 cell line)	effect on cell differentiation (SCC12B2 cell line)	effect on the synthesis of IL-6 (keratinocytes [1])	endogenous RT activities (endogenous RT activities)	effect on the synthesis of IL-6 (keratinocytes [2])	IFN-α expression decreased (keratinocytes [3])	IP10 expression decreased (keratinocytes [3])	other results
Cc1cn([C@H]2C[C@H](N=[N+]=[N-])[C@@H](CO)O2)c(=O)[nH]c1=O [AZT, Zidovudine]	Neither AZT, nor lamivudine has effect	no effect; also recorded: no or minor effects	neither AZT nor lamivudine have effect	less effective	no effect	–	–	–
O=C1Nc2ccc(Cl)cc2[C@@](C#CC2CC2)(C(F)(F)F)O1 [Efavirenz]	–	reverses the "tumoral" phenotype of SCC12B2 cell line	–	decreased endogenous RT activities of both type	–	more than 50%	more than 50%	IL17A expression (keratinocytes [3]): undetectable; TNF-α production (keratinocytes [3]): potent induction; effect on cell differentiation (SCC12B2 cell line; listed as efavirenz): impact cell differentiation
Cc1cc(C#N)cc(C)c1Oc1nc(Nc2ccc(C#N)cc2)nc(N)c1Br [Etravirine]	–	no or minor effects	–	–	–	–	–	–
Cc1cc(/C=C/C#N)cc(C)c1Nc1ccnc(Nc2ccc(C#N)cc2)n1 [Rilpivirine]	–	–	–	–	–	more than 50%	more than 50%	–
C[C@H](Cn1cnc2c(N)ncnc21)OCP(=O)(O)O [Tenofovir]	–	impact cell differentiation	–	–	–	–	–	–
Nc1ccn([C@H]2CS[C@@H](CO)O2)c(=O)n1 [lamivudine, 2',3'-dideoxy-3'-thiacytidine]	Neither AZT, nor lamivudine has effect	–	neither AZT nor lamivudine have effect	–	no effect	–	–	–
